Test results from patent US20090326441A1, “Ultrasonic Enhanced Microneedles” (AGENCY FOR SCIENCE ,TECHNOLOGY AND RESEARCH, priority 2006, published 2009).

Assay: Penetration of calcein through pig skin in Franz cell test device
Type: in vitro ADME
Settings: calcein solution 1 mmol, 0.523 mg/ml, receiving liquid PBS, 37° C., FIG. 9
Description: An injection device according to the present invention was constructed as described above. Testing was performed using calcein on pig skin, using the apparatus in FIG. 8. The graph of FIG. 9 presents the results of testing in three different situations: without enhancers, with hollow microneedles and using the method of the present invention, using microneedles with ultrasonic enhancement. With reference to FIG. 8, test device 10 comprises injection device 20 which has been applied to skin sample 30. Pig skin sample 30 communicates with a receiving liquid in receiving chamber 40. Arm 50 is provided to chamber 40 for inserting or withdrawing the receiving liquid. Chamber 40 is located in Franz cell 60, which comprises a water bath 65 and inlet and outlet ports 70 and 75 respectively for maintaining the receiving liquid at a constant temperature. Sample chamber 80 is provided for holding a test sample. […]
In order to conduct the test using test device 10, calcein solution (1 mmol, 0.523 mg/ml) was placed in chamber 80 so as to supply the solution to device 20, and a receiving liquid (PBS: phosphate buffered saline) was loaded into chamber 40. […] The concentration of calcein in the receiving liquid was then monitored by withdrawing aliquots from arm 50 and analysing them. […]

Which results are given for `O=C(O)CN(CC(=O)O)Cc1cc2c(cc1O)Oc1cc(O)c(CN(CC(=O)O)CC(=O)O)cc1C21OC(=O)c2ccccc21` [calcein]?
transport of calcein across the skin sample (microneedles and ultrasound (20 kHz, 0.5 Wcm^−2), compared with microneedles alone): enhanced; transport of calcein across the skin sample (microneedles, no ultrasound, compared with no microneedles (without enhancers)): improvement
